For data set [1], the target named is T1, human OTR (Homo sapiens, UniProt P30559).
T1 construct: expressed in transfected cells
T1 sequence (P30559 1-389): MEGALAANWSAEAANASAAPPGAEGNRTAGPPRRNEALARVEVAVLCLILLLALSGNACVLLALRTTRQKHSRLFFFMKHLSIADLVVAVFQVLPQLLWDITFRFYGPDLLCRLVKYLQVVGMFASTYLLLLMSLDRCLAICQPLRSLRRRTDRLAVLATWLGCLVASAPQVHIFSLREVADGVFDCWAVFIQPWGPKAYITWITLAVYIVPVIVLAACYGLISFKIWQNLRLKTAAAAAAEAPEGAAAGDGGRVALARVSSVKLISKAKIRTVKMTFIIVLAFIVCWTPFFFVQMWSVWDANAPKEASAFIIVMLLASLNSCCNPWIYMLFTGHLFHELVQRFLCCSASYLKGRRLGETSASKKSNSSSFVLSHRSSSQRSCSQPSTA
Kind of data set: Inhibition activity on human OTR (Fluo-4 calcium assay, HEK293/human OTR stably transfected cells, oxytocin 3 nM). The settings on record: calcium signal. The class given is cell-based. The protocol:
The inhibition effect of the compounds of the present invention on the activity of human OTR protein expressed in HEK293/human OTR stably transfected cells was determined by the following experimental method:
The pcDNA3.1-hOTR plasmid was transferred into HEK293 cells with the Lipofectamine® 3000 transfection reagent; G418 was added on the next day to screen, and monoclonal cell lines were selected.
HEK293/human OTR stably transfected cells were inoculated in a 96-well plate with an inoculation density of 25,000 cells/well one day in advance. On the next day, a loading buffer containing Fluo-4 dye was formulated using the reagents in the Fluo-4 NW calcium assay kit, and the culture medium was then removed; 100 μl of the loading buffer containing Fluo-4 dye were added to each well, and the plate was incubated at 37° C. for 30 minutes. After that, the plate was moved to room temperature and equilibrated for 10 minutes. The compounds were formulated into concentration gradients of 10^6, 10^5, 10^4, 10^3, 10^2 and 10^1 nM. 1 μl of the compounds in each concentration was added to each well, and the plate was incubated at room temperature for 10 minutes. 50 μl of oxytocin polypeptide (3 nM) were automatically added by the machine, and the values were immediately detected at 494/516 nM by the flexstation 3 microplate reader. IC50 values of the compounds were calculated by Graphpad prism software using fluorescence signals corresponding to different concentrations.
The inhibition activity of the compounds of the present invention on human OTR was determined by the above test, and the obtained IC50 values are shown in Table 1.

Data set [2] is described as follows: Pharmacokinetics assay in rats after intragastrical administration. The settings on record: 2 mg/kg; for AUC / CL/F / MRT / Vd/F: plasma.
Method: Rats were used as test animals. […] The pharmacokinetic behavior of the compounds of the present invention was studied and evaluated in rats.
After an overnight fast, SD rats were administered intragastrically the test compounds at an administration dosage of 2.0 mg/kg and an administration volume of 10.0 mL/kg.
0.2 mL of blood was taken from the orbital sinus before administration and at 0.5, 1.0, 2.0, 4.0, 6.0, 8.0, 11.0 and 24.0 hours after administration. The samples were stored in heparinized tubes, and centrifuged for 10 minutes at 4° C. at 3,500 rpm to separate the blood plasma. The plasma samples were stored at −20° C. The rats were fed 2 hours after administration.
The content of the test compounds in the plasma of rats after intragastrical administration of the test compounds at different concentrations was determined: 25 μL of rat plasma at each time after administration was taken, added with 50 μL of the internal standard solution of camptothecin (100 ng/mL) and 200 μL of acetonitrile, vortex-mixed for 5 minutes, and centrifuged for 10 minutes (4000 rpm). 1.0 μL of the supernatant was taken from the plasma samples for LC/MS/MS analysis.
The mark [3] stands for this setting: both, Sprague-Dawley, rat, in vivo, po.

This note sets out measurements from patent US20210040073A1, “AZABICYCLO-SUBSTITUTED TRIAZOLE DERIVATIVE, PREPARATION METHOD THEREOF, AND APPLICATION OF SAME IN MEDICINE” (Jiangsu Hengrui Medicine Co., Ltd., priority 2016, published 2021).

In the case of `COc1ccc(-n2c(COCCF)nnc2N2C[C@@H]3C[C@]3(c3ccc(F)cc3Cl)C2)cn1` [Example 1, (1S,5R)-1-(2-Chloro-4-fluorophenyl)-3-(5-((2-fluoroethoxy)methyl)-4-(6-methoxypyridin-3-yl)-4H-1,2,4-triazol-3-yl)-3-azabicyclo[3.1.0]hexane], the IC50 (as a rule, the concentration that inhibits the measured activity by half) in data set [1] is 44 nM.
Turning to `COCc1nnc(N2C[C@@H]3C[C@]3(c3ccc(F)cc3Cl)C2)n1-c1ccc(OC)nc1` [Example 9, (1S,5R)-1-(2-Chloro-4-fluorophenyl)-3-(5-(methoxymethyl)-4-(6-methoxypyridin-3-yl)-4H-1,2,4-triazol-3-yl)-3-azabicyclo[3.1.0]hexane], in data set [1], the IC50 stood at 14 nM. For the same molecule, the “Half-life T½” value in data set [2] (SD rats, intragastrical) was 3.98 ± 3.55 h. In addition, the maximum concentration (Cmax) (as a rule, the maximum level reached in the sampled fluid or tissue) in data set [2] (setting [3]) is 350 ± 142 ng/mL. For the same molecule, in data set [2] (both, Sprague-Dawley, rat, po), the AUC (commonly concentration integrated over time) was 2040 ± 1020 ng·h/mL; the CL/F – broadly, the apparent clearance, not corrected for the fraction that reaches the circulation – was found to be 20.2 ± 10.3 mL/min/kg; the MRT – broadly, a mean duration of stay, worked out from the concentration-time curve – is 6.23 ± 4.94 h; the Vd/F (usually the apparent distribution volume after extravascular dosing) stood at 6 ± 4.44 L/kg.
As for `COc1ccc(-n2c(N3C[C@@H]4C[C@]4(c4ccc(F)cc4Cl)C3)nnc2C(F)(F)F)cn1` [Example 12, (1S,5R)-1-(2-Chloro-4-fluorophenyl)-3-(4-(6-methoxypyridin-3-yl)-5-(trifluoromethyl)-4H-1,2,4-triazol-3-yl)-3-azabicyclo[3.1.0]hexane], in data set [1], the half-maximal inhibitory concentration (IC50) was found to be 30 nM.
With `CCOCc1nnc(N2C[C@@H]3C[C@]3(c3ccc(F)cc3Cl)C2)n1-c1ccc(OC)nc1` [Example 6, (1S,5R)-1-(2-Chloro-4-fluorophenyl)-3-(5-(ethoxymethyl)-4-(6-methoxypyridin-3-yl)-4H-1,2,4-triazol-3-yl)-3-azabicyclo[3.1.0]hexane], in data set [1], the concentration for half-maximal inhibition (IC50) came out at 4.3 nM. For the same molecule, in data set [2] (SD rats, intragastrical), the “Plasma concentration Cmax” value was found to be 135 ± 80.0 ng/mL. The half-life – broadly, the time in which the quantity being followed falls by half – in data set [2] (setting [3]) was 3.47 ± 1.72 h. In data set [2] (both, Sprague-Dawley, rat, po), this molecule gave an AUC of 1060 ± 982 ng·h/mL, an apparent clearance (CL/F) of 68.9 ± 58.8 mL/min/kg, an MRT of 6.7 ± 0.73 h and a Vd/F of 18 ± 17.4 L/kg.
Regarding `COCc1nnc(N2C[C@@H]3C[C@]3(c3cccc(F)c3Cl)C2)n1-c1ccc(OC)nc1` [Example 4, (1S,5R)-1-(2-Chloro-3-fluorophenyl)-3-(5-(methoxymethyl)-4-(6-methoxypyridin-3-yl)-4H-1,2,4-triazol-3-yl)-3-azabicyclo[3.1.0]hexane], in data set [1], the 50% inhibitory concentration (IC50) came to 29 nM.
